From patent US20070021351A1, “Liver/plasma concentration ratio for dosing hepatitis C virus protease inhibitor” (Schering Corporation, priority 2005, published 2007)

What was measured:
[1] = Pharmacokinetic parameter values on administration to a subject (summary); assay type: in vivo
Procedure: When the compounds are administered in fed subjects the bioavailability of the compound is increased about 100% and the mean Tmax of the compound of Formula Ia is increased about 60%.

[2] = Example 1: Phase 1 rising-single-dose pharmacokinetic study in healthy adult subjects; assay type: in vivo, human; conditions: for DN AUC(I): dose-normalized (to 50 mg); for Tmax: median
Procedure: A Phase 1, randomized, third-party-blind (within dose level), placebo-controlled, rising-single-dose study of compounds of Formulae I-XXVI was conducted in healthy adult subjects.
Nine subjects in each group received either compound of Formula Ia (n=6) or placebo (n=3). Those subjects randomized to active compound received one of the following doses of compound of Formula Ia: 50, 100, 200, 400, 600, or 800 mg.
On Day 1, at least 10 hours prior to compound administration, an overnight fast was maintained until 4 hours following treatment administration, after which lunch was served. During the fasting period, no food or fluid (except noncarbonated water) was permitted; furthermore, drinking water was prohibited from 2 hours predose to 2 hours postdose, with the exception of the approximately 240 mL administered with the treatments.
Blood samples (7 mL each) for the determination of compound of Formula Ia concentrations were collected immediately prior to dosing (0 hour), and at 0.25, 0.5, 0.75, 1, 1.5, 2, 3, 4, 5, 6, 8, 10, 12, 18, 24, 36, 48, 72, and 144 hours postdose. The blood samples were collected into tubes containing EDTA. The samples were separated by centrifugation at 4° C. for 15 minutes at 1500 g to obtain the plasma, and the plasma samples frozen at −20° C. until assayed.
Plasma concentrations of compound of Formula Ia were determined using a validated liquid chromatography tandem mass spectrometry (LC-MS/MS) method. The assay lower limit of quantitation (LLOQ) was 0.50 ng/mL, and the method was validated over the concentration range of 0.50 to 1000 ng/mL.
The mean and percent coefficients of variation (% CV) were calculated for the plasma concentrations of compound of Formula Ia at each time point. Concentration values less than the assay LLOQ were reported as and set to zero in the calculations and tables. The plasma concentration-time data for compound of Formula Ia were subjected to pharmacokinetic analysis by noncompartmental methods using WinNonlin software. Nominal sampling times were used for pharmacokinetic analysis.
For each subject, the following compound of Formula Ia pharmacokinetic parameters were determined: • Cmax Maximum observed plasma concentration • Tmax Time of maximum observed plasma concentration • tf Time of final quantifiable sample • AUC(tf) Area under the plasma concentration-time curve from time 0 to tf • AUC(I) Area under the plasma concentration-time curve from time 0 to infinity [AUC(I)=AUC(tf)+C(tf)estimated/k, where k and C(tf)estimated are terminal elimination rate constant and estimated concentration at final quantifiable sample, respectively] • t½ Terminal-phase half-life (t½=In2/k) • CL/F Apparent total body clearance (CL/F=Dose/AUC[I]) • Vd/F Apparent volume of distribution (Vd/F=CL/F*(t1/2/0.693))
Dose-adjusted (to 50 mg) Cmax, AUC(I), and AUC(tf) values were also calculated. Cmax, Tmax, and tf were the observed values. The terminal phase rate constant (k) was calculated as the negative of the slope of the log-linear terminal portion of the plasma concentration-time curve using linear regression (at least three time points). The number of points needed to determine the terminal phase rate constant was selected by WinNonlin software.
Summary statistics, including means, standard deviations, and coefficients of variation (CV) expressed as a percent, were computed for the single-dose plasma compound of Formula Ia concentration data at each sampling time point and for the derived pharmacokinetic parameters for each dose level using a standard program based on SAS/STAT (Release 6.12; SAS Institute Inc., North Carolina).
The log-transformed dose-adjusted (to 50 mg) Cmax and AUC values of compound of Formula Ia were statistically analyzed using an analysis of variance (ANOVA) model. The effect due to treatment (dose) was extracted. Ninety-five percent confidence intervals (CIs) for the means at each dose level, based on the nontransformed data, were provided. […]

[3] = human, plasma, oral, summary range, dose not stated
[4] = single oral 600 mg, fasted healthy adults, mean, n=6

Structure (SMILES): CC(C)(C)NC(=O)N[C@H](C(=O)N1C[C@H]2[C@@H]([C@H]1C(=O)NC(CC1CCC1)C(=O)C(N)=O)C2(C)C)C(C)(C)C (mixture of isomers) [Formula Ia, (1R,5S)-N-[3-Amino-1-(Cyclobutylmethyl)-2,3-Dioxopropyl]-3-[2(S)-[[[(1,1-Dimethylethyl)Amino]Carbonyl]Amino]-3,3-Dimethyl-1-Oxobutyl]-6,6-Dimethyl-3-Azabicyclo[3.1.0]Hexan-2(S)-Carboxamide]
- increase of bioavailability ([1]; fed subjects): about 100%
- increase of mean Tmax ([1]; fed subjects): about 60%
- Cmax [1, 3]: 50 to 800 ng/mL
- Tmax [1, 3]: 1 to 5 h
- Vd/F [1, 3]: 1500 to 6000 L
- half-life [1, 3]: 120 to 900 min
- AUC(0-t) ([1]; human, plasma, oral, summary range, dose not stated, read-out: AUC(0-8 hr)): 500 to 3000 ng·h/mL
- DN AUC(I) ([2]; single oral 50 mg, mean, n=6): 181 ng·h/mL
- DN AUC(I) ([2]; single oral 100 mg, mean, n=6): 172 ng·h/mL
- DN AUC(I) ([2]; single oral 200 mg, mean, n=6): 212 ng·h/mL
- DN AUC(I) ([2]; single oral 400 mg, mean, n=6): 195 ng·h/mL
- DN AUC(I) ([2]; single oral 600 mg, mean, n=6): 180 ng·h/mL
- DN AUC(I) ([2]; single oral 800 mg, mean, n=6): 145 ng·h/mL
- AUC(I) ([2]; single oral 50 mg, fasted healthy adults, mean, n=6): 181 ng·h/mL
- Tmax ([2]; single oral 50 mg, fasted healthy adults, n=6): 1.50 h
- Cmax ([2]; single oral 400 mg, fasted healthy adults, mean, n=6): 445 ng/mL
- Tmax ([2]; single oral 400 mg, fasted healthy adults, n=6): 1.75 h
- AUC(I) [2, 4]: 2158 ng·h/mL
- t½ [2, 4]: 10.2 h
- Tmax ([2]; single oral 600 mg, fasted healthy adults, n=6): 2.25 h
- AUC(I) ([2]; single oral 800 mg, fasted healthy adults, mean, n=6): 2320 ng·h/mL
- dose dependence of Cmax and AUC ([2]; single oral doses 50-800 mg): increased in a dose-related manner up to the 600 mg dose
